From PMC5038265 (Antimicrobial Agents and Chemotherapy, 2016)
Converted amounts (≈) assume the structure as drawn. Where two headings read alike, the source gives them in different places.

How the values were obtained:
[1] = system: multidrug-resistant M. tuberculosis isolates; experiment: microbe, parasite or virus in culture; format: cell-based; conditions: for MIC: Mycobacterium tuberculosis, read-out: In vitro activity (MIC)
[2] = system: M. tuberculosis H37Rv; format: cell-based

| Compound | cross-resistance against multidrug-resistant isolates [1] | MIC ([1]; H37RV, M. tuberculosis H37Rv) | MIC [1] | In vitro activity (MIC) ([1]; listed as Cmp13) | Resistance frequency at 4× MIC [2] | Resistance frequency at 10× MIC [2] |
| --- | --- | --- | --- | --- | --- | --- |
| CCOc1ccc(Cl)c2c1B(O)O[C@@H]2CN [Compound 13] | did not show any cross-resistance | 0.015 µg/mL (≈ 0.0621 µM) | 0.015 µg/mL (≈ 0.0621 µM) | 0.030 µg/mL | – | – |
| CCOc1ccc(Br)c2c1B(O)O[C@@H]2CN [Compound 14] | did not show any cross-resistance | 0.03 µg/mL (≈ 0.105 µM) | 0.03 µg/mL (≈ 0.105 µM) | – | 4.6 × 10^−6 | 3.9 × 10^−6 |
| NNC(=O)c1ccncc1 [Isoniazid, isoniazid, reference compound] | – | 0.06 µg/mL (≈ 0.438 µM) | > 0.12 µg/mL | – | – | 1.8 × 10^−5 |
| COc1c(N2C[C@@H]3CCCN[C@@H]3C2)c(F)cc2c(=O)c(C(=O)O)cn(C3CC3)c12 [Moxifloxacin, moxifloxacin, reference compound] | – | – | – | – | 1.7 × 10^−7 | 1.1 × 10^−8 |
